In PMC12670396, “Crizotinib- or Ceritinib-Conjugated Platinum(IV) Prodrugs As Potent Multiaction Agents Inducing Antiproliferative Effects in 2D and 3D Cancer Cell Models” (Journal of Medicinal Chemistry, 2025):

Assays:
HCT116 = test: MTT cytotoxic/antiproliferative activity, 72 h; assay type: cell-based, human; conditions: for IC50: HCT116, MTT, 72 h
NCI-H2228 spheroids = test: Cytotoxicity in 3D spheroids, CellTiter-Glo 3D; assay type: cell-based, human; conditions: NCI-H2228 3D spheroids, 96 h
Method: (§1) In the 3D structure, the gradients of gases, nutrients, and therapeutics play a role in the final cytotoxicity of a compound.
(§2) A549 and NCI-H2228 cells were seeded in ultralow attachment, U-shape plates (Corning) at a density of 800 cells/well in the tumorsphere medium consisting of DMEM/F12 medium (Sigma), fibroblast growth factor (20 ng/mL; Sigma), epidermal growth factor 2 (10 ng mL^–1; Sigma), B27 supplement (1×; Gibco), bovine serum albumin, bovine serum albumin (BSA) (1.5 mg mL^–1; Sigma). […] CellTiter-Glo 3D viability assay was used for the experiment evaluation following the manufacturer’s instructions. The bioluminescence signal, proportional to the number of living cells, was measured using the luminescence reader SPARK, and IC50 values were calculated.

A549 spheroids = test: Cytotoxicity in 3D spheroids, CellTiter-Glo 3D; assay type: cell-based, human; conditions: A549 3D spheroids, 96 h
Method: as §1, §2

NCI-H2228 = test: MTT cytotoxic/antiproliferative activity, 72 h; assay type: cell-based, human; conditions: for IC50: NCI-H2228, MTT, 72 h
hTERT-HPNE = test: MTT cytotoxicity in noncancerous cells, 72 h; assay type: cell-based, human
Method: (§3) Growth inhibition activity in cancer cell lines was compared with the activity to inhibit the proliferation of normal (noncancerous) cells, namely MRC-5, IMR-90, hTERT-HPNE, and MCF10A cells. Selectivity indexes (SI) were calculated as (IC50 in noncancerous cells)/(average IC50 in cancer cells). […] We further assessed the toxicity of several of the compounds in hepatocyte-like cells (HLC) generated from human pluripotent cells.
(§4) Cytotoxicity in hepatocyte-like cells (HLC). STEMdiff Hepatocyte Kit was used to generate HLC from human pluripotent stem cells. Cytotoxicity of several of the tested compounds in HLC was evaluated using the sulphorhodamine B assay.

MRC-5 = test: MTT cytotoxicity in noncancerous cells, 72 h; assay type: cell-based, human; conditions: MRC-5, MTT
Method: as §3, §4

MCF10A = test: MTT cytotoxicity in noncancerous cells, 72 h; assay type: cell-based, human
Method: as §3, §4

IMR-90 = test: MTT cytotoxicity in noncancerous cells, 72 h; assay type: cell-based, human; conditions: IMR-90, MTT
Method: as §3, §4

CHOK1 = test: MTT cytotoxicity in NER-proficient cells, 72 h; assay type: cell-based, Chinese hamster
Text: (§5) The cytotoxicity assay was also employed to determine whether DNA damage might be involved in the mechanism of action of the tested compounds. The Chinese hamster ovary MMC2 cell line harbors the ERCC3/XPB mutation, which renders it deficient in nucleotide excision repair (NER), whereas the parent line CHOK1 is proficient in this repair process. Thus, the MMC2 line is often more sensitive to agents causing DNA damage, especially NER-reparable DNA damage, than CHOK1. […] Phosphorylation of H2AX is a commonly used marker of DNA damage.
as §4

NCI-H2228 cells = test: Phosphorylation of H2AX (γH2AX foci, confocal microscopy); assay type: cell-based, human; conditions: NCI-H2228, 3xIC50, 24 h
Text: as §5
The nuclei were counter-stained with DAPI. The samples were mounted with ProLong Diamond antifade mountant, and the images were recorded on a Leica SP8 confocal microscope.

U87-MG = test: MTT cytotoxic/antiproliferative activity, 72 h; assay type: cell-based, human; conditions: for IC50: MTT, 72 h
Method: (§6) A panel of six cancer cell lines was used to evaluate the cytotoxic potential of the investigated compounds.
as §4

CT26 cells = test: Externalization of calreticulin (flow cytometry); assay type: cell-based, murine; conditions: IC50 concentrations, 16 h
Method: Cells with compromised cell membranes (PI-positive) were excluded from the analysis.
CT26 cells were seeded in 6-well plates at a density of 2.5 × 10^5 cells/well and grown overnight. […] PI was added before the flow cytometry analysis with a BD FACS Verse flow cytometer. Then 3 × 10^4 cells were analyzed following the exclusion of cell aggregates. Data was analyzed with FSC Express 7 software (DeNovo software, Glendale, CA).

A549 = test: MTT cytotoxic/antiproliferative activity, 72 h; assay type: cell-based, human; conditions: for IC50: A549, MTT, 72 h
A549 cells = test: Scratch test (cell migration); assay type: cell-based, human; conditions: A549, IC50 concentrations, 48 h
Method: First, we employed the scratch test. The ability to slow the cell closing the open area was observable for all tested compounds to a similar extent (Figure S38). Whereas the open area was almost completely closed after 48 h in nontreated cells, it remained almost fully clear of cells in the treated samples.
A549 cells were seeded in 24-well plates with inserts (Ibidi) at a density of 2 × 10^4 cells/chamber and incubated overnight. The inserts were then withdrawn, and fresh medium containing the investigated compounds was added. The image of the cell-free region was recorded at the time of compound addition and then after 48 h. The cell-free area was evaluated with Fiji software.

MDA-MB-231 = test: MTT cytotoxic/antiproliferative activity, 72 h; assay type: cell-based, human; conditions: for IC50: MDA-MB-231, MTT, 72 h
[1] = tested on: panel of six cancer cell lines; test: MTT, panel of six cancer cell lines (average, ranges); assay type: cell-based, human; conditions: average over six cancer cell lines; read-out: av cancer (average IC50 in cancer cells)
Method: as §6, §4

[2] = tested on: normal (noncancerous) cells MRC-5, IMR-90, hTERT-HPNE, MCF10A; test: MTT, noncancerous cell lines (average, selectivity index); assay type: cell-based, human; conditions: for SI, selectivity index: IC50(normal cells)/averageIC50(cancer cells); for IC50: average over MRC-5, IMR-90, hTERT-HPNE, MCF10A, read-out: av norm (average IC50 in noncancerous cells)
Method: as §3, with “pluripotent cells. […]” for “pluripotent cells.”

CT26 cell line = test: MTT cytotoxic/antiproliferative activity, 72 h; assay type: cell-based, murine
MMC2 = test: MTT cytotoxicity in NER-deficient cells, 72 h; assay type: cell-based, Chinese hamster; conditions: for Index F: IC50(CHOK1)/IC50(MMC2); for IC50: MMC2 (NER deficient), MTT, 72 h
Text: as §5, with “damage. […]” for “damage.”

SMILES | IC50 (HCT116) [nM] | IC50 (NCI-H2228 spheroids) [nM] | IC50 (A549 spheroids) [nM] | IC50 (NCI-H2228) [nM] | IC50 (hTERT-HPNE) [nM] | IC50 (MRC-5) [nM] | IC50 (MCF10A) [nM] | IC50 (IMR-90) [nM] | IC50 (CHOK1) [nM] | γH2AX foci (DNA damage marker) (NCI-H2228 cells) | IC50 (U87-MG) [nM] | externalization of calreticulin (CT26 cells) | IC50 (A549) [nM] | antimigratory effect (closing of open area) (A549 cells) | IC50 (MDA-MB-231) [nM] | IC50 [1] [nM] | SI, selectivity index [2] | IC50 [2] [nM] | IC50 (CT26 cell line) [nM] | IC50 (MMC2) [nM] | further results
N.N.[Cl][Pt][Cl] [cisPt, cisplatin, reference compound] | 8800 ± 500 | 2100 ± 900 | 19000 ± 3000 | 2400 ± 700 | 12000 ± 2000 | 10000 ± 2000 | 8000 ± 900 | 9600 ± 800 | 24000 ± 2000 | detected γH2AX foci | 3000 ± 200 | weakest | 4300 ± 200 | reduced the area filling only partially | 27000 ± 4000 | 8800 | 1.1 | 9900 | 6000 ± 1000 | 2600 ± 600 | Index F (MMC2): 9.23(***); Index F (MMC2; listed as cisplatin): approximately 9
CC(Oc1cc(-c2cnn(C3CCN(C(=O)[O][Pt]([Cl])([Cl])[O]C(=O)CCCc4ccccc4)CC3)c2)cnc1N)c1c(Cl)ccc(F)c1Cl.N.N (stereo not shown) [compound 3, ctc-[Pt(NH3)2(crizotinib)(PhB)Cl2]] | 570 ± 90 | 410 ± 70 | 980 ± 50 | 450 ± 90 | 2200 ± 400 | 1500 ± 600 | 2600 ± 400 | 2300 ± 600 | 630 ± 50 | detected γH2AX foci | 440 ± 50 | externalization of calreticulin was apparent | 480 ± 60 | antimigratory potential comparable to that of crizotinib and ceritinib | 500 ± 70 | 500 | – | 2200 | 800 ± 200 | 230 ± 80 | –
Cc1cc(Nc2ncc(Cl)c(Nc3ccccc3S(=O)(=O)C(C)C)n2)c(OC(C)C)cc1C1CCN(C(=O)[O][Pt]([Cl])([Cl])[O]C(=O)CCCc2ccccc2)CC1.N.N [compound 7, ctc-[Pt(NH3)2(ceritinib)(PhB)Cl2]] | 190 ± 60 | 110 ± 30 | 430 ± 70 | 70 ± 10 | 2000 ± 300 | 1200 ± 400 | 900 ± 200 | 1100 ± 300 | 460 ± 80 | detected γH2AX foci | 260 ± 90 | externalization of calreticulin was apparent | 230 ± 80 | antimigratory potential comparable to that of crizotinib and ceritinib | 220 ± 80 | 220 | 5.9 | 1300 | 270 ± 70 | 100 ± 30 | IC50(MIX)/IC50(complex) (HCT116; HCT116, MIX3/3 or MIX7/7): 3.1; IC50(MIX)/IC50(complex) (NCI-H2228; NCI-H2228, MIX3/3 or MIX7/7): 6.3; IC50(MIX)/IC50(complex) (U87-MG; MIX3/3 or MIX7/7): 2.4; IC50(MIX)/IC50(complex) (A549; A549, MIX3/3 or MIX7/7): 3.9; IC50(MIX)/IC50(complex) (MDA-MB-231; MDA-MB-231, MIX3/3 or MIX7/7): 4.1; Index F (MMC2): 4.60(**)
